From patent US4794114A, “Inhibition of interleukin-1 production by monocytes and/or macrophages” (SmithKline Beckman Corporation, priority 1987, dated 1988)
Where two headings read alike, the source gives them in different places.

Assays:
[1] = system: IL-1 production by human monocytes; test: in vitro IL-1 production by LPS-stimulated human peripheral blood monocytes (EL-4 readout); assay type: cell-based; conditions: for inhibition at 1 µM: 10^-6 M; for inhibition at 0.1 µM: 10^-7 M
Procedure: The effects of antiinflammatory/antiarthritic drugs of different classes, including Compound 1 on the in vitro production of IL-1 by human monocytes was examined.
(§1) Bacterial lipopolysaccharide (LPS) was used to induce IL-1 production by human peripheral blood monocytes. IL-1 activity was measured by its ability to stimulate a Interleukin 2 (IL-2) producing cell line (EL-4) to secrete IL-2, in concert with A23187 ionophore, according to the method of Simon et al., J. Immunol. Methods, 84, 85, (1985). Human peripheral blood monocytes were isolated and purified from either fresh blood preparations from volunteer donors, or from blood Bank buffy coats, according to the procedure of Colotta et al., J. Immunol., 132, 936 (1984). 1×10^6 of such monocytes are plated in 24-well plates at a concentration of 2 million/ml per well. The cells were allowed to adhere for 2 hours, after which time non-adherent cells were removed by gentle washing. Test compounds were then added to the cells for 1 hour (hr) before the addition of lipopolysaccharide (10 ng/ml unless otherwise noted), and the cultures were incubated at 37° C. for an additional 24 hours. At the end of the incubation period, culture supernatants were removed and clarified of cells and all debris. Culture supernatants were immediately assayed for IL-1 biological activity as well as prostaglandin and/or leukotriene concentrations by radioimmunoassay.
^(a) All compounds, except chloroquine, were dissolved in absolute
ethanol at 10^-2 M, which was subsequently diluted further in tissue
assay system at doses tested. Furthermore, test samples were dialyzed
prior to testing in the IL1 assay.
In order to elucidate the mechanism by which Compound 1 mediates its anti-inflammatory activity, the ability of this compound and two closely related analog metabolites, (i.e., the analogs of Compound 1 wherein X is S(0)n and n is 1 or 2) to inhibit human IL-1 production in vitro was evaluated according to the method of Example 1. Briefly, 1×10^6 human peripheral blood monocytes were plated in 24-well plates and allowed to adhere for 1 hr at 37° C. The above compounds were added to a final concentration of 10^-5 M to 10^-8 M. The monocytes were stimulated to produce IL-1 with 1 ng/ml LPS after a 1 hr pretreatment of the cells with the respective compounds.
The inhibitory effect of additional compounds of Formula (I) on the in vitro production of IL-1 production of IL-1 by human monocytes was determined according to the procedure of Examples 1 and 2.

PGE2 = test: in vitro prostaglandin (PGE2) synthesis by LPS-stimulated human monocytes, RIA; assay type: cell-based
Procedure: as §1
^(c) PGE2 was assayed using an RIA kit.

monocytes = test: in vitro; assay type: cell-based, human
Procedure: as §1
^(b) At doses at or above 10^-5 M, this compound exerted some

EL-4/CTLL assay = test: direct effect on IL-1 standard in EL-4/CTLL readout assay; assay type: cell-based
Procedure: as §1
Inhibition of IL-1 production by Compound 1 is not due to a carryover effect of the drug on the cells sed in the IL-1 readout assay. […]

A375 melanoma cells = test: tumoricidal activity of LPS-treated human monocytes in the kill of A375 melanoma cells; assay type: cell-based; conditions: 10^-5 to 10^-8 M
alpha interferon = alpha interferon (other inducible proteins) production; assay type: cell-based
[2] = system: human peripheral blood lymphocytes; test: lectin-stimulated mitogenesis of human peripheral blood lymphocytes; assay type: cell-based
IL-2 = IL-2 production or response; assay type: cell-based
[3] = system: adjuvant-induced arthritis in the rat; test: adjuvant-induced arthritis in the rat: right leg paw edema; assay type: in vivo; conditions: mg/kg: Compound 1 60, indomethacin 2.0, prednisolone 10, methotrexate 0.3, D-penicillamine 50
Procedure: (§2) Adjuvant-induced arthritis in the rat is a model of systemic inflammation with characteristics similar to rheumatoid arthritis in man. […] This model was employed to assess the effect of Compound 1 in vivo on this elevated IL-1 production. Briefly, rats were injected on day 0 with Freund's complete adjuvant in the right hind leg. Drugs were prepared as a suspension in tragacanth and administered daily per os either prophylactically (days 1 to 16) or therapeutically in a short-term modality (days 14 to 16). In all cases, final administration of drug occurred at 3 hours prior to sacrifice. Spleens were removed from these rats and the adherent cells were assessed for their ability to produce IL-1 in vitro in response to stimulation by LPS.
(§3) PROPHYLACTIC TREATMENT: Drugs were administered daily p.o. as a suspensio
(§4) in tragacanth from day 1 to day 16. Final dose given 3 hrs before
(§5) TREATMENT: Drugs were administered daily p.o. as above from
(§6) day 14 to day 16. Final dose given 3 hrs before sacrifice.
(§7) ***P < 0.01 Indomethacin 2.0 mg/kg
(§8) **P < 0.05 Compound 1 60 mg/kg
(§9) *P < 0.10 Prednisolone 10 mg/kg
(§10) D-Penicillamine 50 mg/kg

splenic adherent cells = test: adjuvant-induced arthritis in the rat: % splenic adherent cells; assay type: in vivo; conditions: mg/kg: Compound 1 60, indomethacin 2.0, prednisolone 10, methotrexate 0.3, D-penicillamine 50
Procedure: as §2, §3, §4, §5, §6, §7, §8, §9, §10

[4] = system: IL-1 production by splenic adherent cells; test: adjuvant-induced arthritis in the rat: IL-1 production by LPS-stimulated splenic adherent cells; assay type: in vivo; conditions: for IL-1 Production (splenic adherent cells), % normal control: mg/kg: Compound 1 60, indomethacin 2.0, prednisolone 10, methotrexate 0.3, D-penicillamine 50
Procedure: as §2, §3, §4, §5, §6, §7, §8, §9, §10

[5] = system: endotoxin shock in C57B1/6 mice; assay type: in vivo, mouse; conditions: mouse, in vivo
Procedure: Mice are very resistant to the lethal effects of bacterial lipopolysaccharides (LPS). D-Galactosamine (D-GALN) induces a high degree of sensitization to the lethal effects of LPS in mice and other experimental animals. [See, Galanos et al., Proc. Natl. Acad Sci. USA., 76, 5939 (1979)]. In mice, depending on the strain and age, the sensitivity to endotoxin can be increased many thousand-fold.
A number of preliminary experiments were carried out to establish this model of lethal endotoxin shock.

[6] = Homo sapiens, Monocyte, wide range of LPS, read-out: inhibition of IL-1 production
[7] = Homo sapiens, Monocyte, read-out: % Inhibition IL-1
[8] = prophylactic, daily p.o. days 1-16
[9] = therapeutic, daily p.o. days 14-16

SMILES: Fc1ccc(-c2nc3n(c2-c2ccncc2)CCS3)cc1 [Compound 1]
- dose dependence of IL-1 production inhibition [1]: dose dependent
- inhibition of IL-1 production [1]: inhibits IL-1 production
- relative potency against the two analogs ([1]; 1 ng/ml LPS): slightly more potent than the two analogs tested
- IC50 ([1]; Homo sapiens, Monocyte, 1 ng/ml LPS, 1 hr pretreatment): 250 nM
- inhibition at 10 µM ([1]; Homo sapiens, Monocyte, 10^-5 M, read-out: % Inhibition IL-1): 99%
- inhibition at 1 µM [1, 6]: ~80%
- inhibition at 1 µM ([1]; Homo sapiens, Monocyte, Table 3, read-out: % Inhibition @ 10^-6 M): 70%
- inhibition at 1 µM [1, 7]: 96%
- inhibition at 0.1 µM [1, 6]: ~40%
- inhibition at 0.1 µM [1, 7]: 88%
- inhibition of IL-1 production ([1]; submicromolar range (10^-7 M)): greater than 80%
- inhibition of IL-1 production induced by a variety of activators ([1]; variety of activators): inhibits IL-1 production induced by a variety of activators
- inhibition at 10 µM (PGE2; Homo sapiens, Monocyte, 10^-5 M, read-out: % Inhibition PGE2): 99%
- inhibition at 1 µM (PGE2; Homo sapiens, Monocyte, 10^-6 M, read-out: % Inhibition PGE2): 94%
- inhibition at 0.1 µM (PGE2; Homo sapiens, Monocyte, 10^-7 M, read-out: % Inhibition PGE2): 79%
- inhibition of prostaglandin synthesis (PGE2; submicromolar range (10^-7 M)): greater than 80%
- nonspecific toxic effect on other functions of activated monocytes (monocytes): does not exert a nonspecific toxic effect on other functions of activated monocytes
- effect on the IL-1 assay system (EL-4/CTLL assay; 10^-5 or higher): had an effect on the assay system
- direct effect on the IL-1 assay (EL-4/CTLL assay; lower doses / doses tested): no direct effect on the IL-1 assay
- effect on monocyte tumoricidal activity (A375 melanoma cells): did not effect that biological activity
- effect on other inducible proteins such as alpha interferon (alpha interferon): not effected
- inhibition of lectin-stimulated mitogenesis [2]: does not inhibit lectin-stimulated mitogenesis
- inhibition of IL-2 production (IL-2; IL-2 production): does not inhibit either IL-2 production or response
- inhibition of IL-2 response (IL-2; IL-2 response): does not inhibit either IL-2 production or response
- Right leg paw edema, % normal control [3, 8]: 134 ± 9 % normal control
- Right leg paw edema, % normal control [3, 9]: 159 ± 7 % normal control
- % Adherent Cells (splenic), % normal control (splenic adherent cells; [8]): 98 ± 29 % normal control
- % Adherent Cells (splenic), % normal control (splenic adherent cells; [9]): 216 ± 137 % normal control
- decrease in IL-1 production ([4]; prophylactic administration): more dramatic decrease in IL-1 production than indomethacin which resulted in nearly complete normalization of this parameter
- IL-1 Production (splenic adherent cells), % normal control [4, 8]: 139 ± 28 % normal control
- IL-1 Production (splenic adherent cells), % normal control [4, 9]: 392 ± 129 % normal control
- effect in adjuvant arthritic rats ([4]; therapeutic, short-term treatment): no effect
- protection from lethal effects of LPS/GALN [5]: protected the animals from the lethal effects of LPS/GALN
- immunosuppressive effect (immunosuppressive effect): not immunosuppressive
